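48-hour exposure; five concentrations; linearly interpolated endpoints. TGI denotes the concentration required for complete inhibition of growth.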
How the values were obtained:
Test in all cases: NCI tumour cell line growth inhibition, 48 h
SK-MEL-5 melanoma = test system: SK-MEL-5 melanoma
NCI/ADR-RES ovarian = test system: NCI/ADR-RES ovarian
M19-MEL melanoma = test system: M19-MEL melanoma
OVCAR-8 ovarian = test system: OVCAR-8 ovarian
SW-620 colon = test system: SW-620 colon
HCT-116 colon = test system: HCT-116 colon
HOP-92 NSCLC = test system: HOP-92 NSCLC
HL-60(TB) leukemia = test system: HL-60(TB) leukemia
SR leukemia = test system: SR leukemia
NCI-H460 lung = test system: NCI-H460 lung
K-562 leukemia = test system: K-562 leukemia
SF-539 CNS = test system: SF-539 CNS
NCI-H522 lung = test system: NCI-H522 lung
SN12C renal = test system: SN12C renal
CCRF-CEM leukemia = test system: CCRF-CEM leukemia
UO-31 renal = test system: UO-31 renal
A498 renal = test system: A498 renal
SNB-75 CNS = test system: SNB-75 CNS
DU-145 prostate = test system: DU-145 prostate
NCI-H23 lung = test system: NCI-H23 lung
786-0 renal = test system: 786-0 renal
A549 NSCLC = test system: A549 NSCLC
HT29 colon = test system: HT29 colon
HCT-15 colon = test system: HCT-15 colon
XF 498 CNS = test system: XF 498 CNS
DLD-1 colon = test system: DLD-1 colon
HCC-2998 colon = test system: HCC-2998 colon
OVCAR-3 ovarian = test system: OVCAR-3 ovarian
SK-MEL-28 melanoma = test system: SK-MEL-28 melanoma
COLO 205 colon = test system: COLO 205 colon
RXF-631 renal = test system: RXF-631 renal
ACHN renal = test system: ACHN renal
U251 CNS = test system: U251 CNS
OVCAR-5 ovarian = test system: OVCAR-5 ovarian
M14 melanoma = test system: M14 melanoma
SNB-78 CNS = test system: SNB-78 CNS
RPMI-8226 leukemia = test system: RPMI-8226 leukemia
MDA-MB-231 breast = test system: MDA-MB-231 breast
SF-268 CNS = test system: SF-268 CNS
SK-OV-3 ovarian = test system: SK-OV-3 ovarian
TK-10 renal = test system: TK-10 renal
SF-295 CNS = test system: SF-295 CNS
CAKI-1 renal = test system: CAKI-1 renal
HS 578T breast = test system: HS 578T breast
OVCAR-4 ovarian = test system: OVCAR-4 ovarian
UACC-257 melanoma = test system: UACC-257 melanoma
HOP-18 NSCLC = test system: HOP-18 NSCLC
SNB-19 CNS = test system: SNB-19 CNS
KM12 colon = test system: KM12 colon
EKVX NSCLC = test system: EKVX NSCLC
HOP-62 NSCLC = test system: HOP-62 NSCLC
MALME-3M melanoma = test system: MALME-3M melanoma
KM20L2 colon = test system: KM20L2 colon
UACC-62 melanoma = test system: UACC-62 melanoma
NCI-H226 lung = test system: NCI-H226 lung
LOX IMVI melanoma = test system: LOX IMVI melanoma
PC-3 prostate = test system: PC-3 prostate
MDA-MB-435 = test system: MDA-MB-435
LXFL 529 NSCLC = test system: LXFL 529 NSCLC
SK-MEL-2 melanoma = test system: SK-MEL-2 melanoma
RXF 393 renal = test system: RXF 393 renal
MCF7 breast = test system: MCF7 breast
DMS 114 small cell lung = test system: DMS 114 small cell lung
T-47D breast = test system: T-47D breast
IGROV1 ovarian = test system: IGROV1 ovarian
MDA-N = test system: MDA-N
MOLT-4 leukemia = test system: MOLT-4 leukemia
DMS 273 small cell lung = test system: DMS 273 small cell lung
P388 leukemia = test system: P388 leukemia
P388/ADR leukemia = test system: P388/ADR leukemia
SN12K1 renal = test system: SN12K1 renal

CCc1cccc(CC)c1NC(=S)NC(=O)c1ccc(Br)cc1
TGI (SK-MEL-5 melanoma): > 71.6 µM
TGI (NCI/ADR-RES ovarian): > 100 µM
TGI (M19-MEL melanoma): > 100 µM
TGI (OVCAR-8 ovarian): > 100 µM
TGI (SW-620 colon): > 100 µM
TGI (HCT-116 colon): > 100 µM
TGI (HOP-92 NSCLC): 64.6 µM
TGI (HL-60(TB) leukemia): 26.3 µM
TGI (SR leukemia): 66.3 µM
TGI (NCI-H460 lung): 41.6 µM
TGI (K-562 leukemia): > 100 µM
TGI (SF-539 CNS): > 100 µM
TGI (NCI-H522 lung): 51.3 µM
TGI (SN12C renal): > 81.4 µM
TGI (CCRF-CEM leukemia): > 31.6 µM
TGI (UO-31 renal): > 100 µM
TGI (A498 renal): > 100 µM
TGI (SNB-75 CNS): > 96.6 µM
TGI (DU-145 prostate): > 100 µM
TGI (NCI-H23 lung): > 100 µM
TGI (786-0 renal): > 100 µM
TGI (A549 NSCLC): > 100 µM
TGI (HT29 colon): > 100 µM
TGI (HCT-15 colon): > 78.4 µM
TGI (XF 498 CNS): > 100 µM
TGI (DLD-1 colon): > 100 µM
TGI (HCC-2998 colon): > 100 µM
TGI (OVCAR-3 ovarian): > 100 µM
TGI (SK-MEL-28 melanoma): > 100 µM
TGI (COLO 205 colon): > 53.3 µM
TGI (RXF-631 renal): > 100 µM
TGI (ACHN renal): > 100 µM
TGI (U251 CNS): > 100 µM
TGI (OVCAR-5 ovarian): > 100 µM
TGI (M14 melanoma): > 81.2 µM
TGI (SNB-78 CNS): > 100 µM
TGI (RPMI-8226 leukemia): > 100 µM
TGI (MDA-MB-231 breast): > 100 µM
TGI (SF-268 CNS): > 100 µM
TGI (SK-OV-3 ovarian): > 100 µM
TGI (TK-10 renal): > 64.1 µM
TGI (SF-295 CNS): > 100 µM
TGI (CAKI-1 renal): > 96 µM
TGI (HS 578T breast): > 100 µM
TGI (OVCAR-4 ovarian): > 50.4 µM
TGI (UACC-257 melanoma): > 100 µM
TGI (HOP-18 NSCLC): > 100 µM
TGI (SNB-19 CNS): > 100 µM
TGI (KM12 colon): > 100 µM
TGI (EKVX NSCLC): > 100 µM
TGI (HOP-62 NSCLC): > 100 µM
TGI (MALME-3M melanoma): > 77.1 µM
TGI (KM20L2 colon): > 100 µM
TGI (UACC-62 melanoma): > 100 µM
TGI (NCI-H226 lung): > 95.5 µM
TGI (LOX IMVI melanoma): > 56.2 µM
TGI (PC-3 prostate): > 100 µM
TGI (MDA-MB-435): 83.5 µM
TGI (LXFL 529 NSCLC): > 100 µM
TGI (SK-MEL-2 melanoma): 48.9 µM
TGI (RXF 393 renal): > 78 µM
TGI (MCF7 breast): 71.7 µM
TGI (DMS 114 small cell lung): > 100 µM
TGI (T-47D breast): > 100 µM
TGI (IGROV1 ovarian): > 100 µM
TGI (MDA-N): > 100 µM
TGI (MOLT-4 leukemia): 53.9 µM
TGI (DMS 273 small cell lung): > 100 µM

C[C@@]12CC[C@H]3[C@@H]4CCC(=O)N[C@@]4(C)CC[C@@H]3[C@@]1(C)CC[C@H](OC(=O)Cc1ccc(N(CCCl)CCCl)cc1)C2
TGI (SK-MEL-5 melanoma): 27.1 µM
TGI (NCI/ADR-RES ovarian): 37 µM
TGI (M19-MEL melanoma): 32.8 µM
TGI (OVCAR-8 ovarian): 33.1 µM
TGI (SW-620 colon): 34.1 µM
TGI (HCT-116 colon): 29.9 µM
TGI (HOP-92 NSCLC): 35.3 µM
TGI (NCI-H460 lung): 28.2 µM
TGI (K-562 leukemia): 48.7 µM
TGI (SF-539 CNS): 33.4 µM
TGI (NCI-H522 lung): 34.4 µM
TGI (SN12C renal): 29.1 µM
TGI (CCRF-CEM leukemia): 35.1 µM
TGI (UO-31 renal): 33.3 µM
TGI (A498 renal): 32.8 µM
TGI (SNB-75 CNS): 33.5 µM
TGI (NCI-H23 lung): 30.3 µM
TGI (A549 NSCLC): 30.4 µM
TGI (P388 leukemia): 32 µM
TGI (HT29 colon): 27.8 µM
TGI (HCT-15 colon): 36.1 µM
TGI (DLD-1 colon): 47.1 µM
TGI (HCC-2998 colon): 31.2 µM
TGI (OVCAR-3 ovarian): 34.6 µM
TGI (SK-MEL-28 melanoma): 33 µM
TGI (COLO 205 colon): 38.3 µM
TGI (P388/ADR leukemia): 58.8 µM
TGI (U251 CNS): 28.8 µM
TGI (OVCAR-5 ovarian): 31.5 µM
TGI (SNB-78 CNS): 39.2 µM
TGI (RPMI-8226 leukemia): 56 µM
TGI (SF-268 CNS): 31.9 µM
TGI (SK-OV-3 ovarian): 28.5 µM
TGI (SF-295 CNS): 31.5 µM
TGI (CAKI-1 renal): 30.5 µM
TGI (OVCAR-4 ovarian): 32.2 µM
TGI (UACC-257 melanoma): 55.8 µM
TGI (HOP-18 NSCLC): 34 µM
TGI (KM12 colon): 44.5 µM
TGI (EKVX NSCLC): 31.3 µM
TGI (HOP-62 NSCLC): 31.1 µM
TGI (MALME-3M melanoma): 36.1 µM
TGI (KM20L2 colon): 32.7 µM
TGI (UACC-62 melanoma): 30.5 µM
TGI (NCI-H226 lung): 33.2 µM
TGI (LOX IMVI melanoma): 27.8 µM
TGI (SK-MEL-2 melanoma): > 100 µM
TGI (RXF 393 renal): 32 µM
TGI (MCF7 breast): 24.7 µM
TGI (SN12K1 renal): 32.5 µM
TGI (DMS 114 small cell lung): 28.8 µM
TGI (IGROV1 ovarian): 31.3 µM
TGI (MOLT-4 leukemia): 38.8 µM
TGI (DMS 273 small cell lung): 30.3 µM

CCc1cccc(C(C)C)c1NC(=O)C(=O)C(C(=O)C(=O)OC)c1nc2ccccc2[nH]c1=O (configuration not stated)
TGI (SK-MEL-5 melanoma): > 100 µM
TGI (M19-MEL melanoma): > 100 µM
TGI (OVCAR-8 ovarian): > 100 µM
TGI (SW-620 colon): > 100 µM
TGI (HCT-116 colon): > 100 µM
TGI (HOP-92 NSCLC): > 100 µM
TGI (HL-60(TB) leukemia): > 100 µM
TGI (SR leukemia): > 100 µM
TGI (NCI-H460 lung): > 100 µM
TGI (K-562 leukemia): > 100 µM
TGI (NCI-H522 lung): > 100 µM
TGI (SN12C renal): > 100 µM
TGI (CCRF-CEM leukemia): > 100 µM
TGI (UO-31 renal): > 100 µM
TGI (A498 renal): > 100 µM
TGI (SNB-75 CNS): > 100 µM
TGI (NCI-H23 lung): > 100 µM
TGI (786-0 renal): > 100 µM
TGI (A549 NSCLC): > 100 µM
TGI (HT29 colon): > 100 µM
TGI (HCT-15 colon): > 100 µM
TGI (XF 498 CNS): > 100 µM
TGI (HCC-2998 colon): > 100 µM
TGI (SK-MEL-28 melanoma): > 100 µM
TGI (COLO 205 colon): > 100 µM
TGI (RXF-631 renal): > 100 µM
TGI (ACHN renal): > 100 µM
TGI (U251 CNS): > 100 µM
TGI (OVCAR-5 ovarian): > 100 µM
TGI (M14 melanoma): > 100 µM
TGI (SNB-78 CNS): > 100 µM
TGI (RPMI-8226 leukemia): > 100 µM
TGI (SF-268 CNS): > 100 µM
TGI (SK-OV-3 ovarian): > 100 µM
TGI (TK-10 renal): > 100 µM
TGI (SF-295 CNS): > 100 µM
TGI (CAKI-1 renal): > 100 µM
TGI (OVCAR-4 ovarian): > 100 µM
TGI (UACC-257 melanoma): > 100 µM
TGI (HOP-18 NSCLC): > 100 µM
TGI (SNB-19 CNS): > 100 µM
TGI (KM12 colon): > 100 µM
TGI (EKVX NSCLC): > 100 µM
TGI (MALME-3M melanoma): > 100 µM
TGI (KM20L2 colon): > 100 µM
TGI (UACC-62 melanoma): > 100 µM
TGI (NCI-H226 lung): > 100 µM
TGI (LOX IMVI melanoma): > 100 µM
TGI (LXFL 529 NSCLC): > 100 µM
TGI (SK-MEL-2 melanoma): > 100 µM
TGI (RXF 393 renal): > 100 µM
TGI (DMS 114 small cell lung): > 100 µM
TGI (IGROV1 ovarian): > 100 µM
TGI (MOLT-4 leukemia): > 100 µM
TGI (DMS 273 small cell lung): > 100 µM

— PubChem BioAssay (NCI)
